Test results: patent US6204220A, “Substituted 2-oxo-3-alkynoic acids and methods of use thereof” (Rutgers, The State University of New Jersey, priority 1999, dated 2001)
“And” between values parts separate entries of the source, which are not always exact repeats. Equal values may be shown once.

How the values were obtained:
E1 = target: T1, E1 (Escherichia coli, UniProt P0AFG8); test: Quantification of sulfhydryl groups in E1 (DTNB titration); set-up: species or system E. coli
T1 construct: made in house; host or cells: resolved from PDHc expressed in E. coli JRG1342
Experimental: Quantification of the fraction of sulfhydryl groups in E1 modified by 2-oxo-3-butynoic acid. The concentration of titratable sulfhydryl groups was determined by treating samples (1 mL) containing E1 (3.02×10^-6 M) in 0.05 M KH2 PO4 buffer, pH 8.0 and 8 M urea, with small aliquots of 5,5'-dithiobis-(2-nitrobenzoic acid) from a 1 mM stock solution, and comparing the absorbencies at 412 nm with those obtained with freshly prepared cysteine solutions in the range 10×10^-6 -50×10^-6 M. Protein concentrations were determined by the Bio-Rad method with bovine serum albumin as standard.

[1] = target: T2, C259S variant of 1-lip PDHc (Escherichia coli, UniProt P0AFG8, C260S); test: Inactivation of C259S variant of 1-lip PDHc; assay type: biochemical, E. coli; details: butynoic acid at 1 mM
T2 construct: made in house; host or cells: E. coli JRG1342 (PDHc null), Ptac plasmid pGS457
Experimental: FIG. 6. Inactivation of 1-lip PDHc and its C259N and C259S variants by 2-oxo-3-butynoic acid. 1-lip PDHc (0.162 mg/mL) or the C259N and C259S variants of 1-lip PDHc (0.162 mg/mL) in 20 mM KH2 PO4 buffer, pH 7.5, containing 1 mM ThDP and 5 mM MgCl2 were incubated in the absence (curve 1: 1-lip PDHc and C259N variant) or in the presence of 1 mM of 2-oxo-3-butynoic acid (curve 2: the C259N variant; curve 3: 1-lip PDHc and the C259S variant) in a total volume 0.5 mL in the dark. At different times, aliquots of 50 μL were withdrawn and the overall activity was measured as described in FIG. 1A.
Bacterial strains and plasmids for PDHc. Derivatives of the PDHc null strain, E. coli JRG1342 contained Ptac expression plasmids encoding PDHc with E2 chains bearing three lipoyl domains (3-lip PDHc; pGS523, the wild type parental complex), or a single lipoyl domain in each E2 subunit (1-lip PDHc; pGS501), and variant 1-lip PDH complexes with mutations in the E1 gene leading to C259S (pGS457) and C259N (pGS596) substitutions (Machado et al., 1992; Machado, 1993).
Inactivation of 1-lip and 3-lip PDH complexes and resolved E1 component by 2-oxo-3-alkynoic acids. […]

T1 sequence (P0AFG8 2-887): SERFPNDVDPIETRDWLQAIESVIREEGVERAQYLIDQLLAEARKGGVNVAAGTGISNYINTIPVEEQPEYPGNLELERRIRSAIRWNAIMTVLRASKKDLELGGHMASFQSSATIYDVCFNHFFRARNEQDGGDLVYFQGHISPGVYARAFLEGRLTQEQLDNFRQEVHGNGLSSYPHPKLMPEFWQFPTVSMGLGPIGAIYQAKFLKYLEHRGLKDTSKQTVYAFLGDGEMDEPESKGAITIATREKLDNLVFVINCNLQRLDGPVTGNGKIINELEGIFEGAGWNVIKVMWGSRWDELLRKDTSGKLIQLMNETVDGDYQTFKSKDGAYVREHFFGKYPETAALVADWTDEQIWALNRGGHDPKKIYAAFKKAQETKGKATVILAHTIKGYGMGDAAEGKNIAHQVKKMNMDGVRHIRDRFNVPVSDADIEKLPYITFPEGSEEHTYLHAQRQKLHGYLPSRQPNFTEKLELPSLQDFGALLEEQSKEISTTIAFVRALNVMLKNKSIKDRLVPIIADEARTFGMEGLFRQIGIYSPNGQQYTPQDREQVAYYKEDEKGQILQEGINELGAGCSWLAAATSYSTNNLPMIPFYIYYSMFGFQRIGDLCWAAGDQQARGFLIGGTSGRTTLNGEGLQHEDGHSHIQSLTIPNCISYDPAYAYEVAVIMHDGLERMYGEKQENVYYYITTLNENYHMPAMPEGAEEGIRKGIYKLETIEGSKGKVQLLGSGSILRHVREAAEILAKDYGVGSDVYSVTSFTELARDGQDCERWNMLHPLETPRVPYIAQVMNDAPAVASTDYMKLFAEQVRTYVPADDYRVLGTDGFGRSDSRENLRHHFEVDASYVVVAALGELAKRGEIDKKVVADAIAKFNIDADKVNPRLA
T2 sequence (P0AFG8 2-887 C260S): as the sequence (P0AFG8 2-887) above, with C259S counted along it

C#CC(=O)C(=O)O [2-oxo-3-butynoic acid, 2-Oxo-3-butynoic acid]
SH-groups remaining per monomer (E1; E1 reacted to residual activity of 10%, G-25, DTNB titration, 8 M urea): 3.83±0.18 SH-groups per monomer | SH-groups modified per monomer / subunit (E1; difference to untreated E1): 1.3 SH-groups per monomer and 1.30±0.35 SH-groups per monomer | inactivation of C259S variant [1]: inactivated
